Experimental data from patent publication US11214540B2, “Compositions for treating neurodegenerative diseases” (COGNITION THERAPEUTICS, INC., priority 2017, dated 2022).

What was measured:
[1] = biological target: Sigma-2 receptors on membranes from rat cerebral cortex (Rattus norvegicus (Rat), UniProt Q5U3Y7); assay: Competitive Radioligand Binding Assay 1, Sigma-2 binding ([3H]DTG displacement with (+)pentazocine mask); details: sigma-2 receptor affinity; read-out: S2 Ki
Protocol: Using the same protocol, some compounds for which membrane trafficking data are given in Table 1 were tested for recognition of sigma-2 receptor. Certain compounds preferentially bind to the sigma-2 receptor.
For Sigma-1 binding, various concentrations of test compounds from 100 μM to 1 nM were used to displace 8 nM [3H](+)pentazocine from endogenous receptors on Jurkat cell membranes (Ganapathy M E et al. 1991, J Pharmacol. Exp. Ther. 289:251-260). 10 μM Haloperidol was used to define non-specific binding. […] (Bowen W D, et al. 1993, Mol. Neuropharmcol 3:117-126). 10 μM Haloperidol was used to define non-specific binding. Reactions were terminated by rapid filtration through Whatman GF/C filters using a Brandel 12R cell harvester followed by two washes with ice-cold buffer. Radioactivity on the dried filter discs was measured using a liquid scintillation analyzer (Tri-Carb 2900TR; PerkinElmer Life and Analytical Sciences). The displacement curves were plotted and the Ki values of the test compounds for the receptor subtypes were determined using GraphPad Prism (GraphPad Software Inc., San Diego, Calif.). The percentage specific binding was determined by dividing the difference between total bound (disintegrations per minute) and nonspecific bound (disintegrations per minute) by the total bound (disintegrations per minute).
Affinities for Sigma-1 and Sigma-2 receptors are typically obtained from published studies using cerebral tissue homogenates with [3H](+)pentazocine to measure displacement from Sigma-1 receptors and [3H] 1,3-Di-(2-tolyl)guanidine in the presence of 300 nM (+)pentazocine to measure displacement from Sigma-2 receptors.

[2] = test system: Abeta oligomer-induced membrane trafficking deficits in primary hippocampal neurons; assay: Membrane Trafficking/Exocytosis (MTT) assay, Abeta oligomer effect on neurons; format: cell-based, rat; details: membrane trafficking; read-out: EC50 Abeta;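 note: compound potency for inhibiting the Abeta oligomer effect on exocytosis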
Protocol: Compounds according to any embodiment described herein, were tested for their ability to inhibit an amyloid beta effect on the cells. The compounds generally were able to inhibit the amyloid beta effect as measured by a membrane trafficking/exocytosis assay (MTT assay). The rationale for this assay was as follows:
The present exocytosis assay was adapted for use with mature primary neuronal cultures grown for 3 weeks in vitro. See WO 2011/106785, which is incorporated herein by reference in its entirety. Abeta oligomers cause a dose-dependent decrease in the amount of intracellular vesicles (puncta) filled with reduced purple formazan as measured via image processing using a Cellomics VTI automated microscopy system. […] Increasing the amount of Abeta oligomers eventually results in overt toxicity. Thus, the concentration of neuroactive Abeta oligomers used in the assay is much lower than that causing cell death. […] When configured in this manner, the assay is able to detect compounds that inhibit nonlethal effects of Abeta oligomer whether these compounds act via disruption of oligomers, inhibition of oligomer binding to neurons, or counteraction of signal transduction mechanisms of action initiated by oligomer binding.
Primary hippocampal neurons from E18 Sprague-Dawley rat embryos were plated at optimized concentrations in 384 well plates in NB media (Invitrogen). Neurons were maintained in cultures for 3 weeks, with twice weekly feeding of NB media with N2 supplement (Invitrogen).
A test compound was added to cells at concentrations ranging from 100 uM to 0.001 nM followed by addition of vehicle or Abeta oligomer preparations (3 μM total Abeta protein concentration), and incubated for 1 to 24 hr at 37° C. in 5% CO2. MTT reagent (3-(4,5-dimethylthizaol-2yl)-2,5diphenyl tetrazolium bromide) (Roche Molecular Biochemicals) was reconstituted in phosphate buffered saline to 5 mg/mL. 10 μL of MTT labeling reagent is added to each well and incubated at 37° C. for 1 h, then imaged. Exocytosis was assessed by automated microscopy and image processing to quantify the amount of endocytosed and exocytosed formazan.
Each assay plate was formatted so that compounds are tested with and without Abeta oligomer on each plate. This design eliminates toxic or metabolically active compounds early on in the screening cascade (at the level of the primary screen). Reduced formazan was first visible in intracellular vesicles. Eventual formazan exocytosis was accelerated via Abeta oligomers.
Human amyloid peptide 1-42 was obtained from a number of commercial vendors such as California Peptide, with lot-choice contingent upon quality control analysis. Quality controls of oligomer preparations consist of Westerns to determine oligomer size ranges and relative concentrations, and the MTT assay to confirm exocytosis acceleration without toxicity. Toxicity was monitored in each image-based assay via quantification of nuclear morphology visualized with the DNA binding blue dye DAPI (Invitrogen). Nuclei that are fragmented are considered to be in late stage apoptosis (Majno and Joris '95) and the test would be rejected. Peptide lots producing unusual peptide size ranges or significant toxicity at a standard 1.5 μM concentration on neurons would also be rejected.
Data handling and analysis were accomplished by Cellomics VTI image analysis software and STORE automated database software. Because of the low dynamic range and neuronal well-to-well variability after three weeks in culture, statistical comparisons are made via pairwise Tukey-Kramer analysis to determine the significance of the separation between compound+Abeta oligomers from Abeta alone, and between compound alone from vehicle. The ability of mature primary neurons to more closely approximate the electrophysiologically mediated signal transduction network of the adult brain justifies this screening strategy. […]

log P = format: physicochemical
In short: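 Ratio of un-ionized compound concentrations between octanol and water, with aqueous pH set so the un-ionized form predominates. Value given as the log of the octanol/water ratio.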

potassium channel hERG = potassium channel hERG (Homo sapiens (Human), UniProt Q12809); assay: In vitro testing for hERG inhibition; format: biochemical; details: in vitro toxicity potassium channel hERG
potassium channel hERG, sequence (Q12809 whole entry): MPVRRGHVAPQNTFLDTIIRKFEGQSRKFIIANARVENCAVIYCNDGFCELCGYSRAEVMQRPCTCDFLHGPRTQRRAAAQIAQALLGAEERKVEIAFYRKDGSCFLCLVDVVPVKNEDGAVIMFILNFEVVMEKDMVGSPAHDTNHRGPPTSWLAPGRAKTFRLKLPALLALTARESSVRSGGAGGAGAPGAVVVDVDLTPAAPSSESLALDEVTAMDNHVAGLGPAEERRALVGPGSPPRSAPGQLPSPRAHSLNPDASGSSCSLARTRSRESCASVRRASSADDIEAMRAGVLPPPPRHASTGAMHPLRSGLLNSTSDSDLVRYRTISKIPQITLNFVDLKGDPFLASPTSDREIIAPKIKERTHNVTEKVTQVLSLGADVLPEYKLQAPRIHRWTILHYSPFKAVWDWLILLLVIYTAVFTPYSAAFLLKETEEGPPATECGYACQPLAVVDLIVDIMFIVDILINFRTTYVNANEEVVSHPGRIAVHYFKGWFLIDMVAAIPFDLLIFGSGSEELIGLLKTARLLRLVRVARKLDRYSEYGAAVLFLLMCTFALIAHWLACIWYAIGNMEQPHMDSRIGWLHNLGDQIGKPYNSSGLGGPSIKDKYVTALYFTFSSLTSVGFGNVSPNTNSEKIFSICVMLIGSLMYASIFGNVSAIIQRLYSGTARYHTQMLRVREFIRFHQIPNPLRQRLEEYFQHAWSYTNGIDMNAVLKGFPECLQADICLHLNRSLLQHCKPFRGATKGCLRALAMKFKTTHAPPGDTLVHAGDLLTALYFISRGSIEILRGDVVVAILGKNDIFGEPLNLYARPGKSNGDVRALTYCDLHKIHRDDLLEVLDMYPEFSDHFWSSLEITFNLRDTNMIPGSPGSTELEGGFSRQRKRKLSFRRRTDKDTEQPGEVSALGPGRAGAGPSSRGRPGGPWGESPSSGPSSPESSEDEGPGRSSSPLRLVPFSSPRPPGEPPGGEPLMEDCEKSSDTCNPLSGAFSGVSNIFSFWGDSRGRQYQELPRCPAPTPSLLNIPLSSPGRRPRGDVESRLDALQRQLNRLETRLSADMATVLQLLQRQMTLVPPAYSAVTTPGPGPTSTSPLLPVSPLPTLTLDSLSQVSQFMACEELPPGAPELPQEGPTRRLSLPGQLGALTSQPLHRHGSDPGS
Protocol: In vitro testing for hERG inhibition was performed in a standard assay (See: Haverkamp W, Breithardt G, Carnm A J, Janse M J, Rosen M R, Antzelevitch C, Escande D, Franz M, Malik M, Moss A and Shah R. (2000) Eur Heat J 21 (15); 1216-31).

Sigma-2 receptors on membranes from rat cerebral cortex, sequence (Q5U3Y7 whole entry): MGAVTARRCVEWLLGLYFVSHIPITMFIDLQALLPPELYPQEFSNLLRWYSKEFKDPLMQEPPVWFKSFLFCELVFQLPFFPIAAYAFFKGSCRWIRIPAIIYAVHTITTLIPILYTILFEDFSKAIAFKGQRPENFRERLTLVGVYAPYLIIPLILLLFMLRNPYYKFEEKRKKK

| Compound | Ki [1] [µM] | EC50 [2] [µM] | log P (log P) | IC50 (potassium channel hERG) [µM] |
| --- | --- | --- | --- | --- |
| CC(C)=CC(CC(C)(C)c1ccc(C)cc1)N1CCC(C2CCOCC2)CC1 (stereo not drawn) [Compound 3] | 0.00076 | 0.25 | 6.22 |  |
| CC(C)=CC(CC(C)(C)c1ccc(Cl)cc1)N1CCC(c2ccncc2)CC1 (stereo not drawn) [Compound 24] | 0.01 | 20 | 6.31 |  |
| CC(C)=CC(CC(C)(C)c1ccc(Cl)cc1)N1CCC(c2ccc(S(C)(=O)=O)cc2)CC1 (stereo not drawn) [Compound 32] | 0.032 | 6.9 | 6.37 |  |
| CC(C)=CC(CC(C)(C)c1ccc(C)cc1)N1CCC(C(C)C)CC1 (stereo not drawn) [Compound 33] | 0.033 | 1.92 | 7.04 |  |
| CC(C)=CC(CC(C)(C)c1ccc(C)cc1)N1CCN(CC(C)C)CC1 (stereo not drawn) [Compound 45] | 0.085 | 2.6 | 6.26 |  |
| CC(C)=CC(CC(C)(C)c1ccc(Cl)cc1)N1CCC(c2cccc(S(C)(=O)=O)c2)CC1 (stereo not drawn) [Compound 46] | 0.086 | 4.8 | 6.37 |  |
| CC(C)=CC(CC(C)(C)c1ccc(S(C)(=O)=O)cc1)N1CCC(c2ccncc2)CC1 (stereo not drawn) [Compound 51] | 0.1 | 20 | 4.55 |  |
| CC(C)=CC(CC(C)(C)c1ccc(C)cc1)NCC1CCCCC1 (stereo not drawn) [Compound 52] | 0.11 | 4.8 | 6.9 |  |
| CC(C)=CC(CC(C)(C)c1ccc(C)cc1)NCc1ccc(C)cc1 (stereo not drawn) [Compound 54] | 0.12 | 3.2 | 7.02 |  |
| CC(C)=CC(CC(C)(C)c1ccc(C)cc1)NCC1CCOCC1 (stereo not drawn) [Compound 57] | 0.15 | 0.73 | 5.21 |  |
| CC(C)=CC(CC(C)(C)c1ccc(C)cc1)N1CCN(c2ccccc2)CC1 (stereo not drawn) [Compound 60] | 0.21 | 1 | 6.91 |  |
| CC(C)=CC(CC(C)(C)c1ccc(C(F)(F)F)cc1)N1CCC(N2CCCCC2)CC1 (stereo not drawn) [Compound 127] |  | 0.3 | 6.41 | 3.3 |
| CC(C)=CC(CC(C)(C)c1ccc(C(F)(F)F)cc1)N1CCC(C)(O)CC1 (stereo not drawn) [Compound 129] |  | 1.3 | 5.13 | 24 |
| CCOC1CCN(C(C=C(C)C)CC(C)(C)c2ccc(Cl)cc2)CC1 (stereo not drawn) [Compound 136] |  | 1.5 | 5.58 | 2.1 |
| CC(C)=CC(CC(C)(C)c1ccccc1)N1CCC(O)CC1 (stereo not drawn) [Compound 201] |  | 15 | 3.97 | 15 |
| CC(C)=CC(CC(C)(C)c1ccc(C(F)(F)F)cc1)N1CCC(O)(c2ccccc2)CC1 (stereo not drawn) [Compound 205] |  | 0.59 | 6.5 | 3.9 |

| Compound | Ki [1] [µM] | EC50 [2] [µM] | log P (log P) | IC50 (potassium channel hERG) [µM] |
| --- | --- | --- | --- | --- |
| COCCC1(O)CCN(C(C=C(C)C)CC(C)(C)c2ccc(C(F)(F)F)cc2)CC1 (stereo not drawn) [Compound 210] |  | 0.42 | 4.79 | 4.4 |
| CCCCC1(O)CCN(C(C=C(C)C)CC(C)(C)c2ccc(C(F)(F)F)cc2)CC1 (stereo not drawn) [Compound 212] |  | 1.8 | 6.54 | 27 |
| CC(C)=CC(CC(C)(C)c1ccccc1)N1CCC(C)(O)CC1 (stereo not drawn) [Compound 213] |  | 6.6 | 4.25 | 6.4 |
| COCCC1(O)CCN(C(C=C(C)C)CC(C)(C)c2ccc(Cl)cc2)CC1 (stereo not drawn) [Compound 217] |  | 4.6 | 4.51 | 7.7 |
| CC(CC(C)(C)c1ccc(Cl)cc1)N1CCCC1CO (stereo not drawn) [Compound 229] |  | 15 | 4.03 | 21 |
| CC(C)=CC(CC(C)(C)c1ccc(Cl)cc1)N1CC[C@H](O)C1 (stereo partly drawn) [Compound 230] |  | 10 | 4.52 | 16 |
| CC(C)=CC(CC(C)(C)c1ccc(C(F)(F)F)cc1)N1CC[C@H](O)C1 (stereo partly drawn) [Compound 232] |  | 15 | 4.79 | 29 |
| CC(CC(C)(C)c1ccc(C(F)(F)F)cc1)N1CC[C@H](O)C1 (stereo partly drawn) [Compound 233] |  | 0.26 | 3.79 | 24 |
| CC(C)=CC(CC(C)(C)c1ccc(C(F)(F)F)cc1)N1CCC[C@H]1CO (stereo partly drawn) [Compound 236] |  | 15 | 5.31 | 20 |
| COCC1CCCN1C(C)CC(C)(C)c1ccc(Cl)cc1 (stereo not drawn) [Compound 238] |  | 15 | 4.67 | 13 |
| COC[C@@H]1CCCN1[C@@H](C=C(C)C)CC(C)(C)c1ccc(F)cc1 [Compound 244] |  | 8.5 | 5.22 | 4.8 |
| COCC1CCCN1C(C=C(C)C)CC(C)(C)c1ccc(F)cc1 (stereo not drawn) [Compound 245] |  | > 15 | 5.22 | 14 |
| COC[C@@H]1CCCN1[C@@H](C=C(C)C)CC(C)(C)c1ccccc1 [Compound 249] |  | 15 | 5.07 | 9.4 |
| CC(CC(C)(C)c1ccc(Cl)cc1)N1CCC(O)C1 (stereo not drawn) [Compound 250] |  | 15 | 3.51 | 28 |
| COCC1CCCN1C(C=C(C)C)CC(C)(C)c1ccccc1 (stereo not drawn) [Compound 252] |  | 15 | 5.07 | 7 |
